Literature values, collected in patent US20060034872A1, “Compositions and methods for preventing abuse of orally administered medications” (priority 2002, published 2006).

How the values were obtained:
[1] = molecular target: T1, VR1 receptors of nociceptive afferent neurons (Homo sapiens, UniProt Q8NER1); conditions: ingestion; as little as
T1 construct: selective stimulation of the VR1 receptors of nociceptive afferent neurons; from tissue; host or cells: nociceptive afferent neurons in vivo (skin, oral/nasal mucosa, airways, paravenous tissue)

[2] = molecular target: T1, VR1 receptors of nociceptive afferent neurons; conditions: for sensation elicited by application: applied to skin, oral or nasal mucosa, or subdermal tissue
[3] = molecular target: T1, VR1 receptors of nociceptive afferent neurons; conditions: nasal instillation
peripheral VR1 receptors = molecular target: T2, peripheral VR1 receptors (Homo sapiens, UniProt Q8NER1)
T2 construct: from tissue

[4] = repeated intravesical instillation, 1-2 mM, over five years
VR1 receptors = molecular target: T3, VR1 receptors (Homo sapiens, UniProt Q8NER1)
T3 construct: selective stimulation of the VR1 receptors of nociceptive afferent neurons; from tissue; host or cells: nociceptive afferent neurons in vivo (skin, oral/nasal mucosa, airways, paravenous tissue)

[5] = long term intranasal, 0.15 mg per nostril every 2-3 days, total dose 1.05 mg
bronchial VR1 = molecular target: T4, bronchial VR1 (Homo sapiens, UniProt Q8NER1); conditions: inhaled, 10^−3-10^−8M solutions
T4 construct: selective stimulation of the VR1 receptors of nociceptive afferent neurons; from tissue; host or cells: nociceptive afferent neurons in vivo (skin, oral/nasal mucosa, airways, paravenous tissue)

[6] = not given; remark: listed apart in the source

T3 sequence (Q8NER1 whole entry): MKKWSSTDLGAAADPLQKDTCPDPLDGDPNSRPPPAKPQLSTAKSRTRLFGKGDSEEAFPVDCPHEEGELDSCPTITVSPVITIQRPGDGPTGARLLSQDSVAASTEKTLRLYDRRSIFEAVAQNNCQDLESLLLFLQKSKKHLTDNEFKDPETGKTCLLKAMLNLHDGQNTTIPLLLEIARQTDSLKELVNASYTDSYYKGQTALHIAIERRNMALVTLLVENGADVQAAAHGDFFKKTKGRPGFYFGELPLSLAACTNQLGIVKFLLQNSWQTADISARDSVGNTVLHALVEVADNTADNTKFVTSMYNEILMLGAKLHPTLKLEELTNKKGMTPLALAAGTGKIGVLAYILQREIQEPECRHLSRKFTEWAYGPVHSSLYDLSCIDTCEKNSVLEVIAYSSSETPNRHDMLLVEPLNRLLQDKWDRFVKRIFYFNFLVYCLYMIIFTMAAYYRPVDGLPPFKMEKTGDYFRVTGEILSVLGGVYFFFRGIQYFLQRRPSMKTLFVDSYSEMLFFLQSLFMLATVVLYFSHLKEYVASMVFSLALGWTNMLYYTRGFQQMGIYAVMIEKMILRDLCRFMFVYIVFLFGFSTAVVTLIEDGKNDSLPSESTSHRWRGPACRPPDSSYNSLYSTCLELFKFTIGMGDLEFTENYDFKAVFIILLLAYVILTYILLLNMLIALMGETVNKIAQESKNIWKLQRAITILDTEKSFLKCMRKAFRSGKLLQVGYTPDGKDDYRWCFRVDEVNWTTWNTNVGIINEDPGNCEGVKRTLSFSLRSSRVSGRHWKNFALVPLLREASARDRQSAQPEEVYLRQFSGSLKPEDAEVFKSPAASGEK
T1 sequence (Q8NER1 whole entry): as above
T2 sequence (Q8NER1 whole entry): as above
T4 sequence (Q8NER1 whole entry): as above

COc1cc(CNC(=O)CCCC/C=C/C(C)C)ccc1O [capsaicin]
amount ingested after which tongue and throat irritation occurs [1]: 3 ppm | absorption from the gastrointestinal tract (oral administration): readily absorbed | metabolism in the liver (oral administration): almost completely metabolized | sensation elicited by application [2]: burning pain | sensation following application of dermal cream ([2]; dermal cream containing 0.075% capsaicin): burning pain sensation | amount instilled giving nasal irritation and rhinorrhea [3]: 75 to 150 µg | maximum tolerated dose (MTD) (peripheral VR1 receptors; humans): approximately 4 μg/kg | dose producing raw, burning sensation in chest, face, rectum and extremities (peripheral VR1 receptors; injection directly into the superior vena cava): > 0.5 µg/kg | pathological tissue changes [4]: did not result in pathological tissue changes | pain when injected directly into a vein (VR1 receptors; injected directly into a vein, up to 650 μM): does not cause pain | pain when injected intradermally (VR1 receptors; intradermal injection): very severe pain | low capsaicin doses to which paravenous tissue is highly sensitive (VR1 receptors; paravenous tissue): 0.3 to 6.5 µM | histological abnormalities [5]: no histological abnormalities | immediate effect of inhalation (bronchial VR1): sneezing, coughing, and airway constriction

COc1ccc2c3c1O[C@H]1C(=O)CC[C@@]4(O)[C@@H](C2)N(C)CC[C@]314 [oxycodone]
biological and therapeutic half-lives ([6]; in vivo): very short | bioavailability ([6]; oral and intranasal administration): high

CCCCCCCC/C=C\CCCCCCCC(=O)NCc1ccc(O)c(OC)c1 [olvanil]
first pass metabolism (in vivo): subject to first pass metabolism

C=C(C)[C@]12C[C@@H](C)[C@@]34O[C@](Cc5ccccc5)(O[C@@H]1[C@@H]3C=C(COC(=O)Cc1ccc(O)c(OC)c1)C[C@]1(O)C(=O)C(C)=C[C@@H]41)O2 [resiniferatoxin]
sensation elicited by application [2]: burning pain
